Where a name gives a salt, the structure may show the parent alone.
Columns and labels:
Type in all cases: in vivo
C57BL/6J mice [1] = assay: Forced swimming test of mice; conditions: gavage daily for one month, 3.33 mg/kg, x ± SE, hydrochloride
Procedure: (§1) The mice were kept in a light, temperature and humidity controlled room with 6 mice per cage, and were allowed to eat and drink ad libitum: temperature 21±2° C. humidity 50±10%, 12 h/12 h light and dark cycle (light on at 20:00, light off at 8:00). All animal experiments were conducted in accordance with the guidelines on experiment animal welfare and use issued by NIH.
(§2) The mice were adapted for one week after their arrival, and then entered the experiment.
(§3) The normal group was given the same volume of purified water by gavage, and the gavage doses of other groups are shown in the table in the Experimental results. The mice were administrated by gavage at a fixed time (9:00) every morning, with a gavage volume of 0.1 mL·10g^−1, for one month. The behavioral test was performed 1 h after the last gavage.
During forced swimming, all animals were put into a plexiglass cylinder containing water with a deep of 20 cm at 23±1° C., individually. After 15 minutes, they were transferred to a dry environment at 30° C. for 30 minutes (pre-experiment). After 24 hours, the mice were put into the plexiglass cylinder again for 5 minutes (formal experiment). During this period, the mice were recorded with a video camera. After each mouse was tested, the water was changed and the cylinder was cleaned. SMART3.0 software was used to record the number of static suspension and the latency of static suspension.

C57BL/6J mice [2] = assay: Open field test of mice; conditions: open field 6 min, gavage one month, 3.33 mg/kg, x ± SE, hydrochloride
Procedure: as §1, §2, §3
The test was carried out in an open field box with a length of 50 cm, a width of 50 cm and a depth of 50 cm. The bottom surface of the open field box was equally divided into 9 squares, in which the middle area was the central area, and the remaining areas were the peripheral areas. The bottom and four sides of the open field box were all white. The test was carried out in a quiet and weak red light environment. At the beginning, the mice were placed in the center of the open field box to observe their activities within 6 minutes. The total movement distance, the movement distance in the central area and the number of standing upright of the mice were recorded.

C57BL/6J mice [3] = assay: Tail suspension test of mice; conditions: gavage daily for one month, 3.33 mg/kg, last 4 min of 6 min, x ± SE, hydrochloride
Procedure: as §1, §2, §3
In the tail suspension test, mice were hung on the tail suspension device using medical tape at a position ⅓ from the tip of the tail, in an upright position with the head being about 30 cm from the ground and facing straight onto a camera, which was used to record the immobility time during the tail suspension test of the mice in each group. The test lasted for 6 minutes, and the last 4 minutes were used to calculate the immobility time during the tail suspension test of mice. Immobility time is defined as the time when the mouse stops struggling and is still in a hanging state.

CNCCC(Oc1ccc(C(F)(F)F)cc1)c1ccccc1 (stereo not drawn) [FXT, Fluoxetine hydrochloride]
Number of static suspension (C57BL/6J mice [1]): 54.64 ± 2.704 | Number of static suspension (C57BL/6J mice [1]; listed as fluoxetine): significantly less than that of the control group | Number of standing uprights (C57BL/6J mice [2]): 29.20 ± 2.133 | Total movement distance (C57BL/6J mice [2]): 18435 ± 950.6 | Movement distance in the central area (C57BL/6J mice [2]; listed as fluoxetine): no significant change | Number of standing uprights (C57BL/6J mice [2]; listed as fluoxetine): no significant change | Total movement distance (C57BL/6J mice [2]; listed as fluoxetine): no significant change | Immobility time during tail suspension (C57BL/6J mice [3]): 59.62 ± 6.270 s | Immobility time during tail suspension (C57BL/6J mice [3]; listed as fluoxetine): significantly less than that of the control group

Source: patent US20230125425A1, “TRADITIONAL CHINESE MEDICINE EXTRACT COMPOSITION WITH FUNCTION OF REGULATING DEPRESSIVE EMOTION AND PREPARATION METHOD AND TRADITIONAL CHINESE MEDICINE PREPARATION THEREOF” (CHENLAND NUTRITIONALS, INC., priority 2019, published 2023)
